Bridge positions count the residues as written; N and C are the ends. Square brackets hold non-standard residues; d marks the D form. Peptide text beside a SMILES is read from it. * marks the point of attachment. Heptanoyl(5-Me) = CCC(C)CCCC(=O)*; Dab = NCC[C@H](N)C(=O)O
Key:
[1] = test system: A. nosocomialis strain (1461911 IHMA); test: Pneumonic mouse model, colistin resistant strain; format: in vivo, Acinetobacter nosocomialis; settings: BALB/c mice, 3 per group, one intramuscular dose 24 hours after inoculation, combination groups stated together for both strains (6 mice)
Description: One colistin susceptible (MIC 1 mg/L) A. nosocomialis strain (1204194 IHMA) and one colistin resistant (MIC 4 mg/L) A. nosocomialis strain (1461911 IHMA) are used. […] Fresh brain heart infusion broth (Merck, Darmstadt, Germany) bacterial cultures, in an aerobic atmosphere in the logarithmic growth phase (4-5 hours) at 37° C., are adjusted to a concentration of 1.0×10^6 colony forming units (CFU)/mL, as verified by both spectrophotometry (OD600 0.01-0.02 nm) and colony counting.
A pneumonic mouse model was used. 8- to 12-week-old, specific-pathogen free, male or female BALB/c mice, with 25-35 g in weight, are used for the study Animals have free access to food and water except during experimental procedures. All studies are performed in accordance with the ethical guidelines for the care and use of laboratory animals, and the protocol is approved by an independent ethical commission.
For inoculation, fresh inocula are prepared for each experiment from frozen stocks of the two A. nosocomialis isolates (1204194 and 1461911 IHMA). Broth cultures of freshly plated A. nosocomialis bacteria are grown to logarithmic phase overnight to an absorbance of 0.3 at 630 nm and diluted to 10^7 CFU/ml in saline. Mice are anesthetized by intraperitoneal (i.p.) injection of 12.5 mg/kg (5 μl) xylazine and 80 mg/kg (25 μl) ketamine and then inoculated intranasally with 0.05 ml of this bacterial suspension. […]

A. guillouiae 1285286 = test: Checkerboard colistin sulphate (CS) plus teicoplanin (TP), MIC/FIC and MBC/FBC; format: cell-based, Acinetobacter guillouiae; settings: Acinetobacter guillouiae, agent alone, CAMHB, 5*10^5 CFU/ml
Description: Checkerboard analysis to determine minimal inhibitory concentration (MIC)/fractional inhibitory concentration (FIC) and minimal […] (MBC)/fractional […] (FBC) values of colistin sulphate (CS) plus teicoplanin (TP) for 6 Gram-negative strains with a bacterial load 5(1-10)*10^5 CFU/ml in a cation-adjusted Mueller-Hinton broth (CAMHB). • a. Antimicrobial stock solutions were prepared using sterile distilled water • b. CS was added along the ordinate; TP was added along the abscissa to 96 well, flat bottom, polystyrene panels with no treatment. Colistin alone was tested in triplicates. • c. Serial 2-fold dilutions starting with 640 μg/ml CS and 640 μg/ml TP were made; 15 μl volume of the serial dilutions were added for each agent to the appropriate wells; final volume at 30 μl • d. For each agent tested alone an additional 15 μl media was added to the well. 30 μl were added in control wells where none of the agent was tested. The negative control well contains 150 μl media without any additions • e. From an overnight bacterial culture in tryptic soy broth, 100 μL was added to 10 mL of fresh tryptic soy broth. This was then incubated at 37° C. for 1.5 hour at 180 rpm. • f. Bacteria in 120 μl CAMHB were added to each well (end concentration 5(1-10)*10^5 CFU/ml) • g. Plates were incubated at 37° C. in an ambient air incubator for 24 h • h. Turbidity at OD600 is determined with a plate photometer • i. By using a one-time inoculator 3 μl from each well of the 96-well plate were transferred to three blood agar plates. The plates were incubated over night at 37° C. in an ambient air incubator • j. MIC values are defined as lowest concentration which restricts bacterial growth to OD600 ≤0.1 • k. MBC values were determined by visual reading the lowest concentration which inhibits 99.9% of the growth of bacteria in the wells • l. Determination of the fractional inhibitory concentration (FIC) index and fractional bactericidal concentration (FBC) index and characterization of antimicrobial interactions was assessed […]
FIC calculation was carried out as: (MIC of drug A, tested in combination)/(MIC of drug A, tested alone)+(MIC of drug B, tested in combination)/(MIC of drug B, tested alone). FBC calculation was carried out just as well […]
Interactive categories were calculated from checkerboard analysis using MIC results from testing each agent alone and MIC results from the combination wells adjacent to the wells with growth in them […]
b. Indifference; FIC/FBC>0.5 to<4.0 c. Antagonism; FIC/FBC≥4.0 d. A. guillouiae 1285286 (IHMA), colistin resistant

CCC(C)CCCC(=O)N[C@@H](CCN)C(=O)N[C@H](C(=O)N[C@@H](CCN)C(=O)N[C@H]1CCNC(=O)[C@H]([C@@H](C)O)NC(=O)[C@H](CCN)NC(=O)[C@H](CCN)NC(=O)[C@H](CC(C)C)NC(=O)[C@@H](CC(C)C)NC(=O)[C@H](CCN)NC1=O)[C@@H](C)O (stereo partly drawn) [CS, colistin sulphate] ({Heptanoyl(5-Me)}-[Dab]T[Dab][Dab][Dab][dL]L[Dab][Dab]T; lactam 4-C)
mice that survive until day 3 [1]: 0/3 | MBC (A. guillouiae 1285286; 1285286, A. guillouiae, read-out: MBC): 4 µg/mL | MIC (A. guillouiae 1285286; A. guillouiae 1285286, 24 h, read-out: MIC): 2 µg/mL
